Patent US10294202B2, “Pyrrolidinones as herbicides” (FMC Corporation, priority 2013, dated 2019)

Tests used:
chickweed = test: Test D pre-/postemergence herbicide test; format: in vivo, Stellaria media; settings: for Plant response rating, Chickweed: scale 0 to 100 (0 no effect, 100 complete control); for Plant response rating: Chickweed, scale 0 to 100
Procedure, shortened: (§1)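 Compound applied in non-phytotoxic solvent with surfactant, either preemergence (silt loam soil) or postemergence (peat moss/vermiculite medium, 2–18 cm plants). Evaluated visually after 7 to 21 days; 0 = no effect, 100 = complete control.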

bromegrass, downy = test: Test D pre-/postemergence herbicide test; format: in vivo, Bromus tectorum; settings: for Plant response rating, Bromegrass, Downy: scale 0 to 100 (0 no effect, 100 complete control); for Plant response rating: Bromegrass, Downy, scale 0 to 100
Procedure, shortened: as §1

foxtail, green = test: Test D pre-/postemergence herbicide test; format: in vivo, Setaria viridis; settings: for Plant response rating, Foxtail, Green: scale 0 to 100 (0 no effect, 100 complete control); for Plant response rating: Foxtail, Green, scale 0 to 100
Procedure, shortened: as §1

ryegrass, Italian [1] = test: Test D pre-/postemergence herbicide test; format: in vivo, Lolium multiflorum; settings: for Plant response rating, Ryegrass, Italian: Preemergence, scale 0 to 100 (0 no effect, 100 complete control); for Plant response rating: Postemergence, Ryegrass, Italian, scale 0 to 100
Procedure, shortened: as §1

pigweed = test: Test D pre-/postemergence herbicide test; format: in vivo, Amaranthus retroflexus; settings: for Plant response rating, Pigweed: Preemergence, scale 0 to 100 (0 no effect, 100 complete control); for Plant response rating: Postemergence, Pigweed, scale 0 to 100
Procedure, shortened: as §1

corn = test: Test E preemergence herbicide test; format: in vivo, Zea mays; set-up: key: 0 = no effect, 100 = complete control
Text: Seeds of plant species selected from corn (Zea mays), soybean (Glycine max), velvetleaf (Abutilon theophrasti), lambsquarters (Chenopodium album), wild poinsettia (Euphorbia heterophylla), pigweed, palmer (palmer pigweed, Amaranthus palmeri), waterhemp (common waterhemp, Amaranthus rudis), surinam grass (Brachiaria decumbens), crabgrass, large (large crabgrass, Digitaria sanguinalis), crabgrass, Brazil (Brazilian crabgrass, Digitaria horizontalis), panicum, fall (fall panicum, Panicum dichotomiflorum), foxtail, giant (giant foxtail, Setaria faberii), foxtail, green (green foxtail, Setaria viridis), goosegrass (Eleusine indica), johnsongrass (Sorghum halepense), ragweed (common ragweed, Ambrosia elatior), barnyardgrass (Echinochloa crus-galli), sandbur (southern sandbur, Cenchrus echinatus), arrowleaf […] rhombifolia), ryegrass, Italian (Italian ryegrass, Lolium multiflorum), dayflower, VA (Virginia dayflower, Commelina virginica), field bindweed (Convolvulus arvensis), morningglory (Ipomoea coccinea), nightshade (eastern black nightshade, Solanum ptycanthum), kochia (Kochia scoparia), nutsedge, yellow (yellow nutsedge, Cyperus esculentus), cocklebur (common cocklebur, Xanthium strumarium), smartweed (ladysthumb smartweed, Polygonum Persicaria) and beggarticks (hairy beggarticks, Bidens pilosa), were planted into a silt loam soil and treated preemergence with test chemicals formulated in a non-phytotoxic solvent mixture which included a surfactant. Treated plants and controls were maintained in a greenhouse for 21 days, after which time all species were compared to controls and visually evaluated. Plant response ratings, summarized in Table E, are based on a scale of 0 to 100 where 0 is no effect and 100 is complete control. A dash (-) response means no test result.

soybean = test: Test E preemergence herbicide test; format: in vivo, Glycine max; set-up: key: 0 = no effect, 100 = complete control
Procedure, shortened: (§2)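 Planted in silt loam; preemergence spray, non-phytotoxic solvent/surfactant formulation; greenhouse 21 d; visual score 0–100 vs controls.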

lambsquarters = test: Test E preemergence herbicide test; format: in vivo, Chenopodium album; set-up: key: 0 = no effect, 100 = complete control
Procedure, shortened: as §2

crabgrass, large = test: Test E preemergence herbicide test; format: in vivo, Digitaria sanguinalis; set-up: key: 0 = no effect, 100 = complete control
Procedure, shortened: as §2

crabgrass, Brazil = test: Test E preemergence herbicide test; format: in vivo, Digitaria horizontalis; set-up: key: 0 = no effect, 100 = complete control
Procedure, shortened: as §2

ryegrass, Italian [2] = test: Test E preemergence herbicide test; format: in vivo, Lolium multiflorum; set-up: key: 0 = no effect, 100 = complete control
Procedure, shortened: as §2

## O=C1NC[C@H](c2cccc(C(F)(F)F)c2)[C@H]1C(=O)Nc1cccc(F)c1F [Compound 206]
chickweed; Preemergence, 62 g ai/ha
  Plant response rating, Chickweed: 100
chickweed; Preemergence, 125 g ai/ha
  Plant response rating, Chickweed: 70
chickweed; Preemergence, 31 g ai/ha
  Plant response rating, Chickweed: 30
chickweed; Preemergence, 250 g ai/ha
  Plant response rating: 95
bromegrass, downy; Preemergence, 62 g ai/ha
  Plant response rating, Bromegrass, Downy: 25
bromegrass, downy; Preemergence, 125 g ai/ha
  Plant response rating, Bromegrass, Downy: 55
bromegrass, downy; Preemergence, 31 g ai/ha
  Plant response rating, Bromegrass, Downy: 10
bromegrass, downy; Preemergence, 250 g ai/ha
  Plant response rating: 70
foxtail, green; Preemergence, 62 g ai/ha
  Plant response rating, Foxtail, Green: 95
foxtail, green; Preemergence, 125 g ai/ha
  Plant response rating, Foxtail, Green: 98
foxtail, green; Preemergence, 31 g ai/ha
  Plant response rating, Foxtail, Green: 85
foxtail, green; Preemergence, 250 g ai/ha
  Plant response rating: 98
ryegrass, Italian [1]; 62 g ai/ha
  Plant response rating, Ryegrass, Italian: 30
ryegrass, Italian [1]; 125 g ai/ha
  Plant response rating, Ryegrass, Italian: 55
ryegrass, Italian [1]; 31 g ai/ha
  Plant response rating, Ryegrass, Italian: 35
ryegrass, Italian [1]; 250 g ai/ha
  Plant response rating, Ryegrass, Italian: 75
pigweed; 62 g ai/ha
  Plant response rating, Pigweed: 20
pigweed; 125 g ai/ha
  Plant response rating, Pigweed: 40
pigweed; 31 g ai/ha
  Plant response rating, Pigweed: 5
pigweed; 250 g ai/ha
  Plant response rating, Pigweed: 50
corn; 31 g ai/ha
  Plant response rating, Corn: 0
corn; 62 g ai/ha
  Plant response rating, Corn: 50
corn; 125 g ai/ha
  Plant response rating, Corn: 40
corn; 250 g ai/ha
  Plant response rating, Corn: 70
soybean; 31 g ai/ha
  Plant response rating, Soybean: 0
soybean; 62 g ai/ha
  Plant response rating, Soybean: 0
soybean; 125 g ai/ha
  Plant response rating, Soybean: 0
soybean; 250 g ai/ha
  Plant response rating, Soybean: 0
lambsquarters; 31 g ai/ha
  Plant response rating, Lambsquarters: 35
lambsquarters; 62 g ai/ha
  Plant response rating, Lambsquarters: 65
lambsquarters; 125 g ai/ha
  Plant response rating, Lambsquarters: 95
lambsquarters; 250 g ai/ha
  Plant response rating, Lambsquarters: 98
crabgrass, large; 31 g ai/ha
  Plant response rating, Crabgrass, Large: 98
crabgrass, large; 62 g ai/ha
  Plant response rating, Crabgrass, Large: 98
crabgrass, large; 125 g ai/ha
  Plant response rating, Crabgrass, Large: 98
crabgrass, large; 250 g ai/ha
  Plant response rating, Crabgrass, Large: 100
crabgrass, Brazil; 31 g ai/ha
  Plant response rating, Crabgrass, Brazil: 80
crabgrass, Brazil; 62 g ai/ha
  Plant response rating, Crabgrass, Brazil: 98
crabgrass, Brazil; 125 g ai/ha
  Plant response rating, Crabgrass, Brazil: 98
crabgrass, Brazil; 250 g ai/ha
  Plant response rating, Crabgrass, Brazil: 98
ryegrass, Italian [2]; 31 g ai/ha
  Plant response rating, Ryegrass, Italian: 0
ryegrass, Italian [2]; 62 g ai/ha
  Plant response rating, Ryegrass, Italian: 35
ryegrass, Italian [2]; 125 g ai/ha
  Plant response rating, Ryegrass, Italian: 80
ryegrass, Italian [2]; 250 g ai/ha
  Plant response rating, Ryegrass, Italian: 65

## O=C1NCC(c2ccc(C(F)(F)F)cc2)C1C(=O)Nc1cccc(F)c1F (racemic) [Compound 202]
chickweed; Postemergence, 31 g ai/ha
  Plant response rating: 75
chickweed; Postemergence, 62 g ai/ha
  Plant response rating: 75
chickweed; Postemergence, 125 g ai/ha
  Plant response rating: 80
chickweed; Postemergence, 250 g ai/ha
  Plant response rating: 80
chickweed; Preemergence, 62 g ai/ha
  Plant response rating, Chickweed: 80
chickweed; Preemergence, 31 g ai/ha
  Plant response rating, Chickweed: 45
chickweed; Preemergence, 125 g ai/ha
  Plant response rating: 90
chickweed; Preemergence, 250 g ai/ha
  Plant response rating: 95
bromegrass, downy; Postemergence, 31 g ai/ha
  Plant response rating: 0
bromegrass, downy; Postemergence, 62 g ai/ha
  Plant response rating: 0
bromegrass, downy; Postemergence, 125 g ai/ha
  Plant response rating: 5
bromegrass, downy; Postemergence, 250 g ai/ha
  Plant response rating: 15
bromegrass, downy; Preemergence, 62 g ai/ha
  Plant response rating, Bromegrass, Downy: 0
bromegrass, downy; Preemergence, 31 g ai/ha
  Plant response rating, Bromegrass, Downy: 0
bromegrass, downy; Preemergence, 125 g ai/ha
  Plant response rating: 0
bromegrass, downy; Preemergence, 250 g ai/ha
  Plant response rating: 20
foxtail, green; Postemergence, 31 g ai/ha
  Plant response rating: 60
foxtail, green; Postemergence, 62 g ai/ha
  Plant response rating: 65
foxtail, green; Postemergence, 125 g ai/ha
  Plant response rating: 70
foxtail, green; Postemergence, 250 g ai/ha
  Plant response rating: 70
foxtail, green; Preemergence, 62 g ai/ha
  Plant response rating, Foxtail, Green: 90
foxtail, green; Preemergence, 31 g ai/ha
  Plant response rating, Foxtail, Green: 90
foxtail, green; Preemergence, 125 g ai/ha
  Plant response rating: 98
foxtail, green; Preemergence, 250 g ai/ha
  Plant response rating: 95
ryegrass, Italian [1]; 31 g ai/ha
  Plant response rating: 0
  Plant response rating, Ryegrass, Italian: 0
ryegrass, Italian [1]; 62 g ai/ha
  Plant response rating: 0
  Plant response rating, Ryegrass, Italian: 5
ryegrass, Italian [1]; 125 g ai/ha
  Plant response rating: 10
  Plant response rating, Ryegrass, Italian: 5
ryegrass, Italian [1]; 250 g ai/ha
  Plant response rating: 15
  Plant response rating, Ryegrass, Italian: 10
pigweed; 31 g ai/ha
  Plant response rating: 75
  Plant response rating, Pigweed: 75
pigweed; 62 g ai/ha
  Plant response rating: 75
  Plant response rating, Pigweed: 80
pigweed; 125 g ai/ha
  Plant response rating: 75
  Plant response rating, Pigweed: 90
pigweed; 250 g ai/ha
  Plant response rating: 80
  Plant response rating, Pigweed: 90
corn; 31 g ai/ha
  Plant response rating, Corn: 0
corn; 62 g ai/ha
  Plant response rating, Corn: 0
corn; 125 g ai/ha
  Plant response rating, Corn: 40
corn; 250 g ai/ha
  Plant response rating, Corn: 60
soybean; 31 g ai/ha
  Plant response rating, Soybean: 0
soybean; 62 g ai/ha
  Plant response rating, Soybean: 0
soybean; 125 g ai/ha
  Plant response rating, Soybean: 0
soybean; 250 g ai/ha
  Plant response rating, Soybean: 0
lambsquarters; 31 g ai/ha
  Plant response rating, Lambsquarters: 0
lambsquarters; 62 g ai/ha
  Plant response rating, Lambsquarters: 98
lambsquarters; 125 g ai/ha
  Plant response rating, Lambsquarters: 98
lambsquarters; 250 g ai/ha
  Plant response rating, Lambsquarters: 98
crabgrass, large; 31 g ai/ha
  Plant response rating, Crabgrass, Large: 98
crabgrass, large; 62 g ai/ha
  Plant response rating, Crabgrass, Large: 98
crabgrass, large; 125 g ai/ha
  Plant response rating, Crabgrass, Large: 98
crabgrass, large; 250 g ai/ha
  Plant response rating, Crabgrass, Large: 98
crabgrass, Brazil; 31 g ai/ha
  Plant response rating, Crabgrass, Brazil: 80
crabgrass, Brazil; 62 g ai/ha
  Plant response rating, Crabgrass, Brazil: 98
crabgrass, Brazil; 125 g ai/ha
  Plant response rating, Crabgrass, Brazil: 98
crabgrass, Brazil; 250 g ai/ha
  Plant response rating, Crabgrass, Brazil: 98
ryegrass, Italian [2]; 31 g ai/ha
  Plant response rating, Ryegrass, Italian: 0
ryegrass, Italian [2]; 62 g ai/ha
  Plant response rating, Ryegrass, Italian: 0
ryegrass, Italian [2]; 125 g ai/ha
  Plant response rating, Ryegrass, Italian: 25
ryegrass, Italian [2]; 250 g ai/ha
  Plant response rating, Ryegrass, Italian: 50

## O=C1NCC(c2ccc(OC(F)F)cc2)C1C(=O)Nc1cccc(F)c1F (racemic) [Compound 350]
corn; 31 g ai/ha
  Plant response rating, Corn: 0
corn; 62 g ai/ha
  Plant response rating, Corn: 0
corn; 125 g ai/ha
  Plant response rating, Corn: 0
corn; 250 g ai/ha
  Plant response rating, Corn: 0
soybean; 31 g ai/ha
  Plant response rating, Soybean: 0
soybean; 62 g ai/ha
  Plant response rating, Soybean: 0
soybean; 125 g ai/ha
  Plant response rating, Soybean: 0
soybean; 250 g ai/ha
  Plant response rating, Soybean: 0
lambsquarters; 31 g ai/ha
  Plant response rating, Lambsquarters: 80
lambsquarters; 62 g ai/ha
  Plant response rating, Lambsquarters: 60
lambsquarters; 125 g ai/ha
  Plant response rating, Lambsquarters: 98
lambsquarters; 250 g ai/ha
  Plant response rating, Lambsquarters: 95
crabgrass, large; 31 g ai/ha
  Plant response rating, Crabgrass, Large: 50
crabgrass, large; 62 g ai/ha
  Plant response rating, Crabgrass, Large: 70
crabgrass, large; 125 g ai/ha
  Plant response rating, Crabgrass, Large: 98
crabgrass, large; 250 g ai/ha
  Plant response rating, Crabgrass, Large: 98
crabgrass, Brazil; 31 g ai/ha
  Plant response rating, Crabgrass, Brazil: 0
crabgrass, Brazil; 62 g ai/ha
  Plant response rating, Crabgrass, Brazil: 75
crabgrass, Brazil; 125 g ai/ha
  Plant response rating, Crabgrass, Brazil: 95
crabgrass, Brazil; 250 g ai/ha
  Plant response rating, Crabgrass, Brazil: 98
ryegrass, Italian [2]; 31 g ai/ha
  Plant response rating, Ryegrass, Italian: 0
ryegrass, Italian [2]; 62 g ai/ha
  Plant response rating, Ryegrass, Italian: 25
ryegrass, Italian [2]; 125 g ai/ha
  Plant response rating, Ryegrass, Italian: 20
ryegrass, Italian [2]; 250 g ai/ha
  Plant response rating, Ryegrass, Italian: 35
